Experimental data from ChEMBL document CHEMBL5046253, “Synthesis and bioevaluation of diaryl urea derivatives as potential antitumor agents for the treatment of human colorectal cancer” (Eur J Med Chem, 2022).

Tests used:
[1] = test system: Spleen; assay: Toxicity in BALB/c mouse assessed as effect on spleen by H and E staining based histological analysis; type: tissue-based; details: in vivo
[2] = molecular target: Cytochrome P450 1A2 (Homo sapiens, UniProt P05177); assay: Inhibition of CYP1A2 (unknown origin); type: ADME
Chain of Cytochrome P450 1A2 (P05177 whole entry): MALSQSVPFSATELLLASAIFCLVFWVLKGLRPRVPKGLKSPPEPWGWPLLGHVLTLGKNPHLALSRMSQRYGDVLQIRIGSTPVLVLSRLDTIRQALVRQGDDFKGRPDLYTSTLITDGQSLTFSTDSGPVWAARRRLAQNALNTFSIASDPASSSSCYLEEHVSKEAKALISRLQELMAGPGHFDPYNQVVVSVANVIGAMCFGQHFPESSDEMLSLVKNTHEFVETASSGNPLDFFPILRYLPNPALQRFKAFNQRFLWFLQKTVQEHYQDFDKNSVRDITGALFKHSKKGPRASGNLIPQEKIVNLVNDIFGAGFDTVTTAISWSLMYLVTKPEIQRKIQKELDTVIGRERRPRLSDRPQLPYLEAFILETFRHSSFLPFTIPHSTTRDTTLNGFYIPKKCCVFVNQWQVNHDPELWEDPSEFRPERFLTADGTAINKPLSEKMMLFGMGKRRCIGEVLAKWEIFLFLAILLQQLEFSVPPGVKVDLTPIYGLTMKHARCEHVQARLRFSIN

[3] = test system: Lung; assay: Toxicity in BALB/c mouse assessed as effect on lungs by H and E staining based histological analysis; type: tissue-based; details: in vivo
[4] = molecular target: Cytochrome P450 2C9 (Homo sapiens, UniProt P11712); assay: Inhibition of CYP2C9 (unknown origin); type: ADME
Chain of Cytochrome P450 2C9 (P11712 whole entry): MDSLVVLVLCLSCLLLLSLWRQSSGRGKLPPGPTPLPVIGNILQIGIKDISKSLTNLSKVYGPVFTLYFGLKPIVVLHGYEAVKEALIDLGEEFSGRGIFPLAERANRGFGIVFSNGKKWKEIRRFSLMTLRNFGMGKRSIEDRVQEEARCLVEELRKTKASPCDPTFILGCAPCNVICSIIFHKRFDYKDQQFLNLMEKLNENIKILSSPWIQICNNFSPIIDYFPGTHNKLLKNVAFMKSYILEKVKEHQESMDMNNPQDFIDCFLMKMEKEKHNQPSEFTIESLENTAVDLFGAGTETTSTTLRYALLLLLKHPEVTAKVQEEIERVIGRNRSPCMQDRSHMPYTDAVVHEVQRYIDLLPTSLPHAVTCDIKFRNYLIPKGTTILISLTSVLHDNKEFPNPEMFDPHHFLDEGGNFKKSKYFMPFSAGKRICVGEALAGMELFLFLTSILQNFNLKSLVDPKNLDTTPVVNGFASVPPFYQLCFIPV

[5] = Selectivity index, ratio of IC50 for antiproliferative activity against human L02 cells to IC50 for antiproliferative activity against human HepG2 cells; type: toxicity, cell-based; details: L02 cells versus HepG2 cells, read-out: Ratio IC50
[6] = test system: MDA-MB-231; assay: Antiproliferative activity against human MDA-MB-231 cells assessed as reduction in cell viability incubated for 48 hrs by MTT assay; type: functional, cell-based; details: MDA-MB-231, 48 h
[7] = test system: HCT-116; assay: Induction of apoptosis in human HCT-116 cells assessed as early apoptotic cells at 5 uM incubated for 24 hrs by annexin V FITC/propidium iodide staining based flow cytometry (reference value: 11.1 %); type: functional
[8] = test system: HCT-116; assay: Antitumor activity against human HCT-116 cells xenografted in BALB/c nude mouse assessed as tumor size at 20 mg/kg, iv administered for 19 days (reference value: 1264.1+/-95.7 mm3); type: functional; details: time 19 day
[9] = molecular target: Cytochrome P450 2D6 (Homo sapiens, UniProt P10635); assay: Inhibition of CYP2D6 (unknown origin); type: ADME
Chain of Cytochrome P450 2D6 (P10635 whole entry): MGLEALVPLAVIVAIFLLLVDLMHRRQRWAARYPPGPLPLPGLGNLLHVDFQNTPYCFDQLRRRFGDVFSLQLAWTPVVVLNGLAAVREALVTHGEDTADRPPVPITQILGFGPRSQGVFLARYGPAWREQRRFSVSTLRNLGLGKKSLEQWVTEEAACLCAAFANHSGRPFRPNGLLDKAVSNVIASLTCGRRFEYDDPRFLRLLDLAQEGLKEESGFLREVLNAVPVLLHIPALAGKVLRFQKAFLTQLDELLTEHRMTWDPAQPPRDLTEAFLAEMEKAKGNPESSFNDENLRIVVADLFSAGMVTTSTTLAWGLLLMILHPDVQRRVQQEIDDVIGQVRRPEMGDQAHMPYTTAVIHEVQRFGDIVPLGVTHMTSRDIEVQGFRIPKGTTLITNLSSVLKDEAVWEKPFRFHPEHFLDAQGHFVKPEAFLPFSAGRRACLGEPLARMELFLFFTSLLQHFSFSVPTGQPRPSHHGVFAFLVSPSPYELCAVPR

[10] = Half life in Sprague-Dawley rat at 20 mg/kg, iv by LC-MS/MS analysis; type: ADME, organism-based; details: in vivo
[11] = molecular target: Phosphatidylinositol 4,5-bisphosphate 3-kinase catalytic subunit gamma isoform (Homo sapiens, UniProt P48736); assay: Inhibition of PI3Kgamma (unknown origin) using PIP2 as substrate in presence of ATP incubated for 60 mins by ADP-glo based luminescence assay
Chain of Phosphatidylinositol 4,5-bisphosphate 3-kinase catalytic subunit gamma isoform (P48736 whole entry, canonical isoform): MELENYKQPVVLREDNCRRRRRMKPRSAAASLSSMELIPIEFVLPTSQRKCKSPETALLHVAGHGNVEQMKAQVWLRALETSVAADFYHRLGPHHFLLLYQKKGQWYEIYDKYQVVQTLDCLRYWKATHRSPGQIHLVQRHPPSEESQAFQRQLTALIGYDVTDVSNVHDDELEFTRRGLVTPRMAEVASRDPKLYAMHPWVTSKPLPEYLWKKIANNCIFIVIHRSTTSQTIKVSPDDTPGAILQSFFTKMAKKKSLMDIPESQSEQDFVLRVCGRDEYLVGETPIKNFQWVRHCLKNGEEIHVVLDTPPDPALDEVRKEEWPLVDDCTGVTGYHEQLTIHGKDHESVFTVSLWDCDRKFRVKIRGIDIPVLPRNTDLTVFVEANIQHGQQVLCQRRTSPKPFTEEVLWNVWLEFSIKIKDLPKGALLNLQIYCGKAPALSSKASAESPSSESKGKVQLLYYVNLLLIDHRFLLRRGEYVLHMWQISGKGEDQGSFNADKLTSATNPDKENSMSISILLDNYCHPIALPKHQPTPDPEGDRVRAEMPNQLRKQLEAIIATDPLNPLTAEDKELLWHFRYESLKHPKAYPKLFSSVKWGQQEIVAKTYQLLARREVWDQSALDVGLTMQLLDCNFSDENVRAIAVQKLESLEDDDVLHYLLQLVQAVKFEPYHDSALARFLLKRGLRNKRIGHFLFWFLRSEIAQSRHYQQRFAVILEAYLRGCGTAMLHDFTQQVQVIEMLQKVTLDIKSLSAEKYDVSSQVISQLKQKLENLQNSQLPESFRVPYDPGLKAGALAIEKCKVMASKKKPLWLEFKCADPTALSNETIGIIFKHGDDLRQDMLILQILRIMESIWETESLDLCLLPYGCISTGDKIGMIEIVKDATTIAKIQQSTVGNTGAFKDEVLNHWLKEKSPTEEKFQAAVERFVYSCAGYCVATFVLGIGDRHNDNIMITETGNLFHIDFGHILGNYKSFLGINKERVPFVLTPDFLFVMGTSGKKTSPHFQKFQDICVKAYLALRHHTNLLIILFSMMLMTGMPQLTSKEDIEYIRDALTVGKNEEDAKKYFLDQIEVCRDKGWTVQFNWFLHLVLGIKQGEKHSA

[12] = test system: HCT-116; assay: Induction of cell cycle arrest in human HCT-116 cells assessed as increase in accumulation at G2/M phase at 1.5 to 6 uM after 24 hrs by propidium iodide staining based flow cytometric analysis (reference value: 19.1 %); type: functional; details: dose 1.5-6 µM
[13] = test system: HCT-116; assay: Inhibition of cell migration in human HCT-116 cells at 3 uM measured after 24 hrs by wound healing assay (reference value: 31.16 %); type: functional
[14] = test system: HCT-116; assay: Induction of apoptosis in human HCT-116 cells assessed as viable cells at 5 uM incubated for 24 hrs by annexin V FITC/propidium iodide staining based flow cytometry (reference value: 81.2 %); type: functional; details: read-out: Activity
[15] = test system: HCT-116; assay: Antiproliferative activity against human HCT-116 cells assessed as reduction in cell viability incubated for 48 hrs by MTT assay; type: functional, cell-based; details: HCT-116, 48 h
[16] = test system: Kidney; assay: Toxicity in BALB/c mouse assessed as effect on kidney by H and E staining based histological analysis; type: tissue-based; details: in vivo
[17] = test system: HepG2; assay: Antiproliferative activity against human HepG2 cells assessed as reduction in cell viability incubated for 48 hrs by MTT assay; type: functional, cell-based; details: HepG2, 48 h
[18] = AUC (0 to infinity) in Sprague-Dawley rat at 20 mg/kg, iv by LC-MS/MS analysis; type: ADME, organism-based; set-up: route intravenous, time infinity, dose 20 mg/kg; details: in vivo
[19] = test system: Mus musculus; assay: Hyperglycemic activity in ICR mouse model assessed as effect on blood glucose level at 20 mg/kg, iv by glucometer; type: toxicity, organism-based; details: in vivo
[20] = MRT in Sprague-Dawley rat at 20 mg/kg, iv by LC-MS/MS analysis; type: ADME, organism-based; details: in vivo
[21] = test system: L02; assay: Antiproliferative activity against human L02 cells assessed as reduction in cell viability incubated for 48 hrs by MTT assay; type: cell-based; details: L02, 48 h
[22] = Tmax in Sprague-Dawley rat at 20 mg/kg, iv by LC-MS/MS analysis; type: ADME, organism-based; details: in vivo
[23] = test system: HCT-116; assay: Induction of apoptosis in human HCT-116 cells assessed as late apoptotic cells at 10 uM incubated for 24 hrs by annexin V FITC/propidium iodide staining based flow cytometry (reference value: 6.8 %); type: functional
[24] = molecular target: T1, Phosphatidylinositol 4,5-bisphosphate 3-kinase catalytic subunit delta isoform (Homo sapiens, UniProt O00329); assay: Inhibition of PI3Kdelta (unknown origin) using PIP2 as substrate in presence of ATP incubated for 60 mins by ADP-glo based luminescence assay
T1 sequence (O00329 whole entry): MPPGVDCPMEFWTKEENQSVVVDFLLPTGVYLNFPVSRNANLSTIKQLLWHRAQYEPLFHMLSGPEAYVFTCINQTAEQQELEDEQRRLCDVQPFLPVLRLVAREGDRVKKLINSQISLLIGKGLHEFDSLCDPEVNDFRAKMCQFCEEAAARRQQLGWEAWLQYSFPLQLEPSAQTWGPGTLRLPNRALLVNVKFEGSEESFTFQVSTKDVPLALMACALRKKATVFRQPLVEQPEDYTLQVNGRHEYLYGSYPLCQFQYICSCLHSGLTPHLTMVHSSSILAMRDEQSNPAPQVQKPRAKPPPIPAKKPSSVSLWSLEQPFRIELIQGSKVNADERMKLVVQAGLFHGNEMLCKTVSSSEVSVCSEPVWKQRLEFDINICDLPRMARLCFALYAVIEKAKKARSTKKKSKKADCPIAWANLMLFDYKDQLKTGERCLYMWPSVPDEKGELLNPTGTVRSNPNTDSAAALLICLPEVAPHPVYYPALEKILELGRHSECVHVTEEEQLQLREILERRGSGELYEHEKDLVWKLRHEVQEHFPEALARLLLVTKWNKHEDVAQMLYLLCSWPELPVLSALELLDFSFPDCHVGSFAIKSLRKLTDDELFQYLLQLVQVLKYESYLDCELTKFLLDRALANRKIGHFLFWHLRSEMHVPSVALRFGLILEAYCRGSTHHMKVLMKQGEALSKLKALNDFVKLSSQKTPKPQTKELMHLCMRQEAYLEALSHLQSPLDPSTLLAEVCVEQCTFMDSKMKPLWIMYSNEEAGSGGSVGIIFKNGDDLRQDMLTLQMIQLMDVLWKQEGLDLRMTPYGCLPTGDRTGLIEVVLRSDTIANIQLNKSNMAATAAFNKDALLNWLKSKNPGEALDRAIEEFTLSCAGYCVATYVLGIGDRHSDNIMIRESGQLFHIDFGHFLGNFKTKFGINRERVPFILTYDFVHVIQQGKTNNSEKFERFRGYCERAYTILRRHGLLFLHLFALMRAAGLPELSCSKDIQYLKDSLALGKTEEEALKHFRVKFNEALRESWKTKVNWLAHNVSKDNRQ

[25] = AUC (0 to 72 hrs) in Sprague-Dawley rat at 20 mg/kg, iv by LC-MS/MS analysis; type: ADME, organism-based; set-up: time < 72 hr, route intravenous, dose 20 mg/kg; details: in vivo
[26] = molecular target: Cytochrome P450 3A4 (Homo sapiens, UniProt P08684); assay: Inhibition of CYP3A4 (unknown origin); type: ADME
Chain of Cytochrome P450 3A4 (P08684 whole entry): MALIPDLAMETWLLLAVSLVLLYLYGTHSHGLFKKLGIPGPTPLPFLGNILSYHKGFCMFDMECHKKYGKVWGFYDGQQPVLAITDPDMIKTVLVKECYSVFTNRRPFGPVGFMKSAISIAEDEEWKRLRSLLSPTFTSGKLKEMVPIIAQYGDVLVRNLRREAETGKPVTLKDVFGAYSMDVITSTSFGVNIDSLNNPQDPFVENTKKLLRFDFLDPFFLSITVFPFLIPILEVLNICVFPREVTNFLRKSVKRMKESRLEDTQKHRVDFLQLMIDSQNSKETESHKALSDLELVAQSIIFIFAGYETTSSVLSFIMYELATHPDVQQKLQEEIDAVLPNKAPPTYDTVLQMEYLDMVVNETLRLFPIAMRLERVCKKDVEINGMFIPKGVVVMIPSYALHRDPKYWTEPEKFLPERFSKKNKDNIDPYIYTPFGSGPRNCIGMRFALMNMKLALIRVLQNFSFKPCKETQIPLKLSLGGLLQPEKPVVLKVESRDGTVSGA

[27] = test system: HCT-116; assay: Inhibition of cell migration in human HCT-116 cells at 6 uM measured after 24 hrs by wound healing assay (reference value: 31.16 %); type: functional
[28] = Stability in Sprague-Dawley rat plasma; type: ADME, cell-free

## NC(=O)[C@@H]1CCCN1C(=O)c1ccc(NC(=O)Nc2ccc(-c3nc(N4CCOCC4)nc(N4CCOCC4)n3)cc2)cc1
[1]
  Activity: Non-Toxic
[2]
  IC50: > 50 µM
[3]
  Activity: Non-Toxic
[4]
  IC50: > 50 µM
[5]
  selectivity ratio: 6.6
[6]
  IC50: 6.48 µM
[7]
  Activity: 13.3%
[8]
  Activity: 796.2 mm3
[9]
  IC50: > 50 µM
[10]
  half-life: 19 h
[11]
  IC50: 0.0087 µM
[12]
  Activity: 22.2%
[13]
  inhibition at 3 µM: 9.72%
[14]
  viability at 5 µM: 75.2%
[15]
  IC50: 0.11 µM
[16]
  Activity: Non-Toxic
[17]
  IC50: 15.1 µM
[18]
  AUC(0-inf): 30600 ng·h/mL
[19]
  Activity: Non-Toxic
[20]
  MRT: 10.4 h
[21]
  IC50: > 100 µM
[22]
  Tmax: 1.8 min
[23]
  Activity: 10.3%
[24]
  IC50: 0.0274 µM
[25]
  AUC(0-t) at 72 h: 30000 ng·h/mL
[26]
  IC50: > 50 µM
[27]
  inhibition at 6 µM: 6.4%
[28]
  Stability: Stable
